Experimental findings from patent US8299048B2, “Hexahydrocyclopentyl[f]indazole sulfonamides and derivatives thereof as selective glucocorticoid receptor modulators” (Merck Sharp & Dohme Corp., priority 2008, dated 2012) are described below.

For this test, the target named is T1, glucocorticoid receptor (Homo sapiens, UniProt P04150).
T1 construct: endogenous in cells
T1 sequence (P04150 1-777): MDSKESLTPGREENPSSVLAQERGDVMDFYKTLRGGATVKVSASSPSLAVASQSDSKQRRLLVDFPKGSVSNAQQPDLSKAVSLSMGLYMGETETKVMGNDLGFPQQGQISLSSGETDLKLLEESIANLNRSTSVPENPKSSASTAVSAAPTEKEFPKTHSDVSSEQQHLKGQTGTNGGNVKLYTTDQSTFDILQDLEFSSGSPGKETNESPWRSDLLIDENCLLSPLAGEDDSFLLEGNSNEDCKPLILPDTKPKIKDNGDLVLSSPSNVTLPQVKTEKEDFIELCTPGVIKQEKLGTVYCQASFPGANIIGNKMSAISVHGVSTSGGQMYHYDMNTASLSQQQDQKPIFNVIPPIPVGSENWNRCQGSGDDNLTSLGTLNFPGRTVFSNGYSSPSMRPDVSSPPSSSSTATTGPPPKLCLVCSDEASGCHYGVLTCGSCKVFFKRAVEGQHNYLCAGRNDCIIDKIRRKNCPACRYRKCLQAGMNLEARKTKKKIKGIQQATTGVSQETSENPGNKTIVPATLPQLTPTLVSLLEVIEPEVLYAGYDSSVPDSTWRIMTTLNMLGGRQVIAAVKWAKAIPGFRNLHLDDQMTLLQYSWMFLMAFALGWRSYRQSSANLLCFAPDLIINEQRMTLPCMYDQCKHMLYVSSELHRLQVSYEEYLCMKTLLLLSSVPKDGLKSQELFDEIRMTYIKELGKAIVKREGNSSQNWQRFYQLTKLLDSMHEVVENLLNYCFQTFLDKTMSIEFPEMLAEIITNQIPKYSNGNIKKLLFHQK
Put plainly: Ligand binding assay (GR BIND). An outline of the steps:
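Cytosol from freeze–thawed cells in TEGM (pH 7.2, 10 mM molybdate) was incubated overnight at 4 °C with compound and [3H]-dexamethasone trace (added as 6 nM solution), 2% EtOH final. Bound ligand was captured on hydroxylapatite, filtered, washed and scintillation counted. Values were calculated with dexamethasone as reference.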

For orientation: Ki means a dissociation constant, usually derived from enzyme kinetics or from competition with a known ligand.

Structures are written as SMILES.

The molecule `C[C@]12Cc3cnn(-c4ccc(F)cc4)c3C=C1CC[C@@H]2CN(CCc1ccccc1O)S(=O)(=O)Cc1cccnc1` [Example 131, N-{[(4αR,5S)-1-(4-fluorophenyl)-4α-methyl-1,4,4α,5,6,7-hexahydrocyclopenta[f]indazol-5-yl]methyl}-N-[2-(2-hydroxyphenyl)ethyl]-1-pyridin-3-ylmethanesulfonamide] returned a Ki of 1.7 nM. This lies in the single-digit nanomolar range. For `C[C@]12Cc3cnn(-c4ccc(F)cc4)c3C=C1CC[C@@H]2CN(Cc1cccnn1)S(=O)(=O)CC(F)(F)F` [Example 132, 2,2,2-trifluoro-N-{[(4αR,5S)-1-(4-fluorophenyl)-4α-methyl-1,4,4α,5,6,7-hexahydrocyclopenta[f]indazol-5-yl]methyl}-N-(pyridazin-3-ylmethyl)ethanesulfonamide] the value was 5.5 nM. `C[C@]12Cc3cnn(-c4ccc(F)cc4)c3C=C1CC[C@@H]2CN(CC(O)C(F)F)S(=O)(=O)CC(F)(F)F` (stereo partly drawn) [Example 133, N-(3,3-difluoro-2-hydroxypropyl)-2,2,2-trifluoro-N-{[(4αR,5S)-1-(4-fluorophenyl)-4α-methyl-1,4,4α,5,6,7-hexahydrocyclopenta[f]indazol-5-yl]methyl}ethanesulfonamide]: the affinity corresponds to a Ki of 0.8 nM.

`C[C@]12Cc3cnn(-c4ccc(F)cc4)c3C=C1CC[C@@H]2CN(CC(OS(=O)(=O)CC(F)(F)F)C(F)F)S(=O)(=O)CC(F)(F)F` (stereo partly drawn) [Example 134, 2,2-difluoro-1-({{[(4αR,5S)-1-(4-fluorophenyl)-4α-methyl-1,4,4α,5,6,7-hexahydrocyclopenta[f]indazol-5-yl]methyl}[(2,2,2-trifluoroethyl)sulfonyl]amino}methyl)ethyl 2,2,2-trifluoroethanesulfonate] gave a Ki of 1.8 nM. The molecule `C[C@]12Cc3cnn(-c4ccc(F)cc4)c3C=C1CC[C@@H]2CN(CC1(O)CC1)S(=O)(=O)CC(F)(F)F` [Example 135, 2,2,2-trifluoro-N-{[(4αR,5S)-1-(4-fluorophenyl)-4α-methyl-1,4,4α,5,6,7-hexahydrocyclopenta[f]indazol-5-yl]methyl}-N-[(1-hydroxycyclopropyl)methyl]ethanesulfonamide] had a Ki of 2.9 nM. Take `C[C@]12Cc3cnn(-c4ccc(F)cc4)c3C=C1CC[C@@H]2CN(CC1(OS(=O)(=O)CC(F)(F)F)CC1)S(=O)(=O)CC(F)(F)F` [Example 136, 1-({{[(4αR,5S)-1-(4-fluorophenyl)-4α-methyl-1,4,4α,5,6,7-hexahydrocyclopenta[f]indazol-5-yl]methyl}[(2,2,2-trifluoroethyl)sulfonyl]amino}methyl)cyclopropyl 2,2,2-trifluoroethanesulfonate]: affinity was put at a Ki of 2.5 nM. This Ki and that of the molecule before are within 1.5-fold of each other. Take `C[C@]12Cc3cnn(-c4ccccc4)c3C=C1CC[C@@H]2CN(CCc1ccccc1F)S(=O)(=O)CC(F)(F)F` [Example 137, 2,2,2-trifluoro-N-[2-(2-fluorophenyl)ethyl]-N-{[(4αR,5S)-4α-methyl-1-phenyl-1,4,4α,5,6,7-hexahydrocyclopenta[f]indazol-5-yl]methyl}ethanesulfonamide]: the Ki was found to be 0.9 nM.

As for `C[C@]12Cc3cnn(-c4ccccc4)c3C=C1CC[C@@H]2CN(CCc1ccccn1)S(=O)(=O)CC(F)(F)F` [Example 138, 2,2,2-trifluoro-N-{[(4αR,5S)-4α-methyl-1-phenyl-1,4,4α,5,6,7-hexahydrocyclopenta[f]indazol-5-yl]methyl}-N-(2-pyridin-2-ylethyl)ethanesulfonamide], affinity was put at a Ki of 1.2 nM. The molecule `COc1ccccc1CCN(C[C@H]1CCC2=Cc3c(cnn3-c3ccccc3)C[C@@]21C)S(=O)(=O)CC(F)(F)F` [Example 139, 2,2,2-trifluoro-N-[2-(2-methoxyphenyl)ethyl]-N-{[(4αR,5S)-4α-methyl-1-phenyl-1,4,4α,5,6,7-hexahydrocyclopenta[f]indazol-5-yl]methyl}ethanesulfonamide] showed a Ki of 1.5 nM. On to `C[C@]12Cc3cnn(-c4ccccc4)c3C=C1CC[C@@H]2CN(CCc1ccccn1)S(=O)(=O)Cc1cccnc1` [Example 140, N-{[(4αR,5S)-4α-methyl-1-phenyl-1,4,4α,5,6,7-hexahydrocyclopenta[f]indazol-5-yl]methyl}-1-pyridin-3-yl-N-(2-pyridin-2-ylethyl)methanesulfonamide], for which the affinity, expressed as Ki, was 4.1 nM. `C[C@]12Cc3cnn(-c4ccccc4)c3C=C1CC[C@@H]2CN(CCc1ccccc1O)S(=O)(=O)Cc1cccnc1` [Example 141, N-[2-(2-hydroxyphenyl)ethyl]-N-{[(4αR,5S)-4α-methyl-1-phenyl-1,4,4α,5,6,7-hexahydrocyclopenta[f]indazol-5-yl]methyl}-1-pyridin-3-ylmethanesulfonamide]: the affinity, expressed as Ki, was 1.1 nM. `C[C@]12Cc3cnn(-c4ccc(F)cc4)c3C=C1CC[C@@H]2CN(CC(O)c1ccccn1)S(=O)(=O)CC(F)(F)F` (stereo partly drawn) [Example 142, 2,2,2-trifluoro-N-{[(4αR,5S)-1-(4-fluorophenyl)-4α-methyl-1,4,4α,5,6,7-hexahydrocyclopenta[f]indazol-5-yl]methyl}-N-(2-hydroxy-2-pyridin-2-ylethyl)ethanesulfonamide] had a Ki of 0.9 nM. For `C[C@]12Cc3cnn(-c4ccc(F)cc4)c3C=C1CC[C@@H]2CN(CC(O)c1cccnc1)S(=O)(=O)CC(F)(F)F` (stereo partly drawn) [Example 143, 2,2,2-trifluoro-N-{[(4αR,5S)-1-(4-fluorophenyl)-4α-methyl-1,4,4α,5,6,7-hexahydrocyclopenta[f]indazol-5-yl]methyl}-N-(2-hydroxy-2-pyridin-3-ylethyl)ethanesulfonamide], the Ki worked out at 13.3 nM.

Regarding `C[C@]12Cc3cnn(-c4ccc(F)cc4)c3C=C1CC[C@@H]2CN(CC(O)c1ccncc1)S(=O)(=O)CC(F)(F)F` (stereo partly drawn) [Example 144, 2,2,2-trifluoro-N-{[(4αR,5S)-1-(4-fluorophenyl)-4α-methyl-1,4,4α,5,6,7-hexahydrocyclopenta[f]indazol-5-yl]methyl}-N-(2-hydroxy-2-pyridin-4-ylethyl)ethanesulfonamide], the Ki stood at 0.9 nM.

The molecule `C[C@]12Cc3cnn(-c4ccc(F)cc4)c3C=C1CC[C@@H]2CN(CC(OS(=O)(=O)CC(F)(F)F)c1ccccn1)S(=O)(=O)CC(F)(F)F` (stereo partly drawn) [Example 145, 2-{{[(4αR,5S)-1-(4-fluorophenyl)-4α-methyl-1,4,4α,5,6,7-hexahydrocyclopenta[f]indazol-5-yl]methyl}[(2,2,2-trifluoroethyl)sulfonyl]amino}-1-pyridin-2-ylethyl 2,2,2-trifluoroethanesulfonate] gave a Ki of 1 nM. For `CC(CN(C[C@H]1CCC2=Cc3c(cnn3-c3ccc(F)cc3)C[C@@]21C)S(=O)(=O)CC(F)(F)F)c1cccnc1` (stereo partly drawn) [Example 146, 2,2,2-trifluoro-N-{[(4αR,5S)-1-(4-fluorophenyl)-4α-methyl-1,4,4α,5,6,7-hexahydrocyclopenta[f]indazol-5-yl]methyl}-N-(2-pyridin-3-ylpropyl)ethanesulfonamide] the value was 0.8 nM. `C[C@]12Cc3cnn(-c4ccc(F)cc4)c3C=C1CC[C@@H]2CN(CCC(N)C(F)(F)F)S(=O)(=O)CC(F)(F)F` (stereo partly drawn) [Example 147, N-(3-amino-4,4,4-trifluorobutyl)-2,2,2-trifluoro-N-{[(4aR,5S)-1-(4-fluorophenyl)-4α-methyl-1,4,4α,5,6,7-hexahydrocyclopenta[f]indazol-5-yl]methyl}ethanesulfonamide] yielded a Ki of 3.2 nM. With `CCCS(=O)(=O)N(CC(O)C(F)(F)F)C[C@H]1CCC2=Cc3c(cnn3-c3ccc(F)cc3)C[C@@]21C` (stereo partly drawn) [Example 148, N-{[(4αR,5S)-1-(4-fluorophenyl)-4α-methyl-1,4,4α,5,6,7-hexahydrocyclopenta[f]indazol-5-yl]methyl}-N-(3,3,3-trifluoro-2-hydroxypropyl)propane-1-sulfonamide] the figure was 1.6 nM. Take `C[C@]12Cc3cnn(-c4ccc(F)cc4)c3C=C1CC[C@@H]2CN(CC(O)C(F)(F)F)S(=O)(=O)Cc1cccnc1` (stereo partly drawn) [Example 149, N-{[(4αR,5S)-1-(4-fluorophenyl)-4α-methyl-1,4,4α,5,6,7-hexahydrocyclopenta[f]indazol-5-yl]methyl}-1-pyridin-3-yl-N-(3,3,3-trifluoro-2-hydroxypropyl)methanesulfonamide]: the affinity corresponds to a Ki of 1.8 nM. The Ki values of the last two molecules are within 1.5-fold of each other. For `Cn1cc(S(=O)(=O)N(CCc2ccccn2)C[C@H]2CCC3=Cc4c(cnn4-c4ccc(F)cc4)C[C@@]32C)c(C(F)(F)F)n1` [Example 150, N-{[(4αR,5S)-1-(4-fluorophenyl)-4α-methyl-1,4,4α,5,6,7-hexahydrocyclopenta[f]indazol-5-yl]methyl}-1-methyl-N-(2-pyridin-2-ylethyl)-3-(trifluoromethyl)-1H-pyrazole-4-sulfonamide] the value was 1.5 nM; for `CCCS(=O)(=O)N(CCc1ccccn1)C[C@H]1CCC2=Cc3c(cnn3-c3ccc(F)cc3)C[C@@]21C` [Example 151, N-{[(4αR,5S)-1-(4-fluorophenyl)-4α-methyl-1,4,4α,5,6,7-hexahydrocyclopenta[f]indazol-5-yl]methyl}-N-(2-pyridin-2-ylethyl)propane-1-sulfonamide], 1.3 nM.
